Source: patent US9139577B2, “Sulfoximine substituted quinazolines for pharmaceutical compositions” (Boehringer Ingelheim International GmbH, priority 2013, dated 2015)

Assays:
[1] = system: MNK2 (MNK2a or MNK2b) or MNK1; conditions: cell culture cells transfected with MNK2 (MNK2a or MNK2b) or MNK1; cited from earlier work
MNK1 = MNK1 (Homo sapiens (Human), UniProt Q9BUB5); assay: MNK1 in vitro kinase assay (Assay 3), Z'-LYTE; assay type: biochemical; conditions: for inhibition at 1 µM: compound concentration of 1 μM, read-out: MNK1 % INH
Outline: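 Pre-activated GST-MNK1a phosphorylated a FRET peptide for 60 min at room temperature in HEPES pH 7.5 buffer with Mg2+/Mn2+, EGTA and DTT, with 1% DMSO final. Protease development followed for 60 min.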

MNK2a = MNK2a (Homo sapiens (Human), UniProt Q9HBH9); assay: MNK2a in vitro kinase assay (Assay 2), ADP-Glo; assay type: biochemical; conditions: read-out: MNK2 IC50
Sequence of MNK2a (Q9HBH9 whole entry): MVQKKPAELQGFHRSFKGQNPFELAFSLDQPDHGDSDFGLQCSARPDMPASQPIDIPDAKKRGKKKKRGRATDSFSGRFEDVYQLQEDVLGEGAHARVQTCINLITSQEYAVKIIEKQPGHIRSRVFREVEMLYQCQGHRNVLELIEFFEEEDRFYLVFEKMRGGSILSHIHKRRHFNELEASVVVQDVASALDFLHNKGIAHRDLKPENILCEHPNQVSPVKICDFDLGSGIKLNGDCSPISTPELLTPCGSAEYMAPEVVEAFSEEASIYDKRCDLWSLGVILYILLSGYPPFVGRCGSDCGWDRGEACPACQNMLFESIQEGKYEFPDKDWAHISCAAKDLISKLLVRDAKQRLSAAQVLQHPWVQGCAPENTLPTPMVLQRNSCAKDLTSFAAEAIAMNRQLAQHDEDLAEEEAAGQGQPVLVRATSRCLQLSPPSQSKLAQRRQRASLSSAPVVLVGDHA

Sequence of MNK1 (Q9BUB5 other isoform, or with tags, fused parts or gaps): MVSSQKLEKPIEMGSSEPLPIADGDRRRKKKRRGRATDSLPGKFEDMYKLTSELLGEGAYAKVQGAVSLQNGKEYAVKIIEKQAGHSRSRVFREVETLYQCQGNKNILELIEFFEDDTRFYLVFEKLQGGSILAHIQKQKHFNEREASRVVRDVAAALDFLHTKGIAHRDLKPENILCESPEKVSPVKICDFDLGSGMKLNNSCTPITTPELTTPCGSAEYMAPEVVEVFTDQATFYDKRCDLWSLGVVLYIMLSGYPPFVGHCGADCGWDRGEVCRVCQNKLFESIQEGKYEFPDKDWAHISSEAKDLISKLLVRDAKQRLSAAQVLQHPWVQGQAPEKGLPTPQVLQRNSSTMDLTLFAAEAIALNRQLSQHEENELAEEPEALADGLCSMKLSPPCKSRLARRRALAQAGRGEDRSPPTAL

IC50 (MNK1)	IC50 (MNK2a)	inhibition at 1 µM (MNK1)	Structure (SMILES)	reduction of phosphorylated eIF4E [1]
–	–	–	Nc1ncnc2n[nH]c(Nc3ccc(F)cc3)c12 [CGP57380]	strong reduction of phosphorylated eIF4E
66 nM	2 nM	–	Cc1cc(N=S(C)(C)=O)cc2ncnc(Nc3ccc(F)cc3O[C@@H](C)CNC(=O)C(F)(F)F)c12 [Example 5.004]	–
–	2 nM	97%	COCC(C)NC(=O)[C@@H](C)Oc1cc(F)ccc1Nc1ncnc2cc(N=S3(=O)CCCC3)cc(C)c12 (some centres unmarked) [Example 4.040]	–
–	24 nM	86%	Cc1cc(N=S(C)(C)=O)cc2ncnc(Nc3ccc(F)cc3O[C@H](C)C(=O)NCC3CCCO3)c12 (some centres unmarked) [Example 4.011]	–
–	2 nM	102%	COc1cc(N=S(C)(C)=O)cc2ncnc(Nc3ccc(F)cc3OC(C)c3cc(C)no3)c12 (centres unmarked) [Example 7.003]	–
34 nM	1 nM	–	Cc1cc([C@@H](C)Oc2ncccc2Nc2ncnc3cc(N=S(C)(C)=O)cc(C)c23)on1 [Example 2.018]	–
–	8 nM	88%	Cc1cc(N=S(C)(C)=O)cc2ncnc(Nc3ccc(F)cc3OCC3CCO3)c12 (centres unmarked) [Example 3.013]	–
–	66 nM	87%	COCCNC(=O)[C@@H](C)Oc1cc(F)ccc1Nc1ncnc2cc(N=S(C)(C)=O)cc(C)c12 [Example 4.035]	–
75 nM	3 nM	–	Cc1cc(N=S2(=O)CCCC2)cc2ncnc(Nc3ccc(F)cc3O[C@H](C)C(=O)NCC(C)(C)O)c12 [Example 4.058]	–
–	4 nM	89%	Cc1cc(N=S2(=O)CCCC2)cc2ncnc(Nc3ccc(F)cc3O[C@H](C)C(=O)N3CCC(O)C3)c12 (some centres unmarked) [Example 4.010]	–
53 nM	1 nM	–	Cc1cc([C@@H](C)Oc2ncccc2Nc2ncnc3cc(N=S(C)(C)=O)cc(Cl)c23)on1 [Example 1.016]	–
–	2 nM	56%	Cc1cc(N=S(C)(C)=O)cc2ncnc(Nc3ccc(F)cc3OCC3CCNC(=O)C3)c12 (centres unmarked) [Example 3.033]	–
–	2 nM	98%	CCOC(=O)[C@@H](C)Oc1cc(F)ccc1Nc1ncnc2cc(N=S(C)(C)=O)cc(C)c12 [Example 3.022]	–
–	1 nM	92%	Cc1cc(N=S(C)(C)=O)cc2ncnc(Nc3ccc(F)cc3O[C@H](C)CN)c12 [Example 3.018]	–
36 nM	2 nM	99%	Cc1cc(N=S(C)(C)=O)cc2ncnc(Nc3ccc(Cl)cc3O[C@H](C)C(=O)N[C@@H](C)C(F)(F)F)c12 [Example 4.088]	–
–	4 nM	99%	C#CCNC(=O)[C@@H](C)Oc1cc(F)ccc1Nc1ncnc2cc(N=S(C)(C)=O)cc(C)c12 [Example 4.018]	–
–	12 nM	92%	COCC(C)NC(=O)[C@@H](C)Oc1cc(F)ccc1Nc1ncnc2cc(N=S(C)(C)=O)cc(C)c12 (some centres unmarked) [Example 4.021]	–
–	1 nM	70%	Cc1cc(N=S(C)(C)=O)cc2ncnc(Nc3ccc(F)cc3OCC3CCCCO3)c12 (centres unmarked) [Example 3.006]	–
75 nM	5 nM	–	Cc1cc(N=S(C)(C)=O)cc2ncnc(Nc3ccc(F)cc3OCCC(F)(F)F)c12 [Example 3.031]	–
–	5 nM	97%	Cc1cc(N=S2(=O)CCCC2)cc2ncnc(Nc3ccc(F)cc3O[C@H](C)C(=O)NCC3CCCO3)c12 (some centres unmarked) [Example 4.001]	–
–	8 nM	80%	Cc1cc(N=S(C)(C)=O)cc2ncnc(Nc3ccc(F)cc3OC(C)c3ncco3)c12 (centres unmarked) [Example 3.002]	–
–	9 nM	96%	Cc1cc(N=S(C)(C)=O)cc2ncnc(Nc3ccc(F)cc3OC(C)c3cccnc3)c12 (centres unmarked) [Example 3.007]	–
